According to patent US6417220B2, “Mitochondrial membrane stabilizer” (Daiichi Pharmaceutical Co., Ltd., priority 1996, dated 2002):

Assays:
[1] = test system: NG108-15 cells; assay: Determination of the mitochondrial membrane potential (Rhodamine 123 fluorescence); format: cell-based
[2] = test system: NG108-15 cells; assay: Determination of the intracellular Ca2+ concentration (fura2-AM fluorescence ratio); format: cell-based
Description: The present invention will be explained more specifically by referring to the following examples. However, the scope of the present invention is not limited to these examples. The test procedure in the examples was according to the method of Hare et al. (Hare, M. F., et. al., JPET, 266, pp.1626-1635, 1993) unless otherwise indicated. In the examples, “Nefiracetam” means 2-oxo-1-pyrrolidinylacetic acid 2,6-dimethylanilide, and “Ro5-4864” means the mitochondrias benzodiazepine receptor agonist, (7-chloro-5-(4-chlorophenyl)-1,3-dihydro-1-methyl-2H-1,4-benzodiazepin-2-one: TIPS, December, pp. 506-511, 1986).
Changes in the intracellular Ca^2+ concentration caused by Ro5-4864 was studied. Cultured cells (NG108-15 cells: nerve cell x neuroglia cell hybrid) were cultured in DMEM culture medium, and further cultured in Flexiperm Disc (Heraeus Biotechnology) provided with a cover glass and used in the following described below. The cultured NG 108-15 cells were added with Ro5-4864 at final concentration of […]. A fluorescent remedicament, fura2-AM (1-(6-amino-2-(5-carboxy-2-oxazoly-5-benzofuranyloxy)-2-(2-amino-5-methylphenoxy)-ethane-N,N,N′,N′-teraacetic acid, pentaacetoxymethyl ester, Dojindo Laboratories) was dissolved in DMSO (Dimethylsulfoxide, Nakarai Chemical) to prepare a 1 mM solution, and this solution was diluted 200 times with HBS (Herpes-saline solution, composition: NaCl; 130 mM; KCl: 5.4 mM; CaCl2: 1.8 mM; MgSO4: 0.8 mM; D-glucose: 20 mM; Na^+-HEPES; 20 mM, pH 7.3) to prepare a fluorescent reagent solution (final concentration of fra2-AM: 5 μM).
For the determination of intracellular Ca^2+ concentrations, the culture medium was removed from the Petri dish where the NG108-15 cells were cultured, and the dish was washed twice with HBS. The cultured cells were added with the 5 μM fura2-AM solution prepared above, put in a carbon dioxide gas incubator for 30 minutes, and then washed with HBS five times to remove the added fura2-AM solution. Finally, 1 ml of HBS was added to the Flexiperm, and the intracellular Ca^2+ concentration was measured by ARGUS-50/CA (Hamamatsu Photonics). According to this measurement, the fluorescence of Ca^2+-bound type fura-2 emitted at an excitation wavelength of 340 nm and the fluorescence of Ca^2+-free type fura-2 emitted at an excitation wavelength of 380 nm were measured as a pair at a constant interval for the fura-2 loaded cultured cells, and their relative ratio (ratio of fluorescence intensity) was used to analyze the intracellular Ca^2+ dynamics (concentration). An increase in the 340 nm excited fluorescence due to the binding of intracellular calcium ions to the fura2-AM, and a decrease in the 380 nm excited fluorescence were recorded by imaging and the ratio of fluorescence intensity between the fluorescence images was obtained.

[3] = male mouse, p.o.; cited from earlier work

SMILES: CN(C(=O)Cn1c(=O)n2c(Br)c(-c3cccc(Cl)c3)nc2c2ccccc21)c1ccccc1 [NCS-1044-90, 2-(3-Chlorophenyl)-3-bromo-6-(N-methyl-N-phenylacetamido)-5-oxo-5,6-dihydroimidazo[1,2-c]quinazoline]
- change in intracellular mitochondrial membrane potential ([1]; NCS-1044-90 10 μM alone, FIG. 10): No change
- change in intracellular mitochondrial membrane potential on addition of Ro5-4864 ([1]; Ro5-4864 50 μM added to cells treated with NCS-1044-90 10 μM, FIG. 10): only a very small elevation
- change in intracellular mitochondrial membrane potential on further addition of Ro5-4864 ([1]; further treatment with Ro5-4864 100 μM, cells treated with NCS-1044-90 10 μM, FIG. 10): slight and gentle elevation
- change in intracellular Ca2+ concentration on addition of Ro5-4864 ([2]; Ro5-4864 100 μM applied to cells treated beforehand with NCS-1044-90 10 μM, FIG. 9): only a very small elevation

SMILES: Cc1cccc(C)c1NC(=O)CN1CCCC1=O [Nefiracetam, 2-oxo-1-pyrrolidinylacetic acid 2,6-dimethylanilide]
- change in mitochondrial membrane potential ([1]; Nefiracetam 50 μM alone, FIG. 6): no change
- change in mitochondrial membrane potential on addition of Ro5-4864 ([1]; Ro5-4864 25 μM in the presence of Nefiracetam 50 μM, FIG. 6): almost no change
- depolarizing effect of Ro5-4864 on mitochondrial membranes ([1]; Ro5-4864 50 μM in the presence of Nefiracetam, FIG. 6): weak
- change in intracellular Ca2+ concentration ([2]; Nefiracetam 50 μM alone, after washing, FIG. 5): no change
- change in intracellular Ca2+ concentration on addition of Ro5-4864 ([2]; Ro5-4864 25 μM in the presence of Nefiracetam 50 μM, FIG. 5): almost no change
- acute toxicity [3]: 2,005 mg/kg

SMILES: CN1C(=O)CN=C(c2ccc(Cl)cc2)c2cc(Cl)ccc21 [Ro5-4864, 7-chloro-5-(4-chlorophenyl)-1,3-dihydro-1-methyl-2H-1,4-benzodiazepin-2-one]
- change in mitochondrial membrane potential ([1]; Ro5-4864 50 μM alone, FIG. 2): remarkably decreased
- change in mitochondrial membrane potential ([1]; Ro5-4864 50 μM applied after caffeine and bradykinin, FIG. 4): remarkable decrease
- change in intracellular Ca2+ concentration ([2]; Ro5-4864 25 μM alone, FIG. 5, first peak): elevation
- change in intracellular Ca2+ concentration ([2]; Ro5-4864 50 μM alone, FIG. 7, first peak): elevation
- change in intracellular Ca2+ concentration ([2]; Ro5-4864 50 μM applied after bradykinin and caffeine treatment (endoplasmic reticulum Ca2+ depleted), FIG. 3): markedly elevated
- change in intracellular Ca2+ concentration ([2]; Ro5-4864 alone, FIG. 1): sharply increases

SMILES: Cn1c(=O)c2c(ncn2C)n(C)c1=O [caffeine, reference compound]
- change in mitochondrial membrane potential ([1]; caffeine 10 μM and bradykinin 1 μM applied, FIG. 4): no alteration
